From ChEMBL document CHEMBL1800066 (J Med Chem, 2011)
In brackets after ≈: the same amount, converted by molar mass. Activity calls are given as the source filed them. No cut-off for these calls is given here.

Tests used:
[1] = target: T1, Hepatocyte growth factor receptor (Homo sapiens, UniProt P08581); experiment: Inhibition of recombinant human c-MET phosphorylation at C-terminal Y1365
[2] = Lipophilicity, log P of the compound; type: physicochemical; conditions: octanol/water
[3] = AUC (0 to infinity) in rat at 2 mg/kg, iv; type: ADME, organism-based; parameters: time infinity, dose 2 mg/kg, route intravenous; conditions: plasma
[4] = target: T1, Hepatocyte growth factor receptor
[5] = Volume of distribution at steady state in monkey at 0.25 mg/kg, iv; type: ADME, organism-based, Macaca mulatta; parameters: dose 0.25 mg/kg, route intravenous; conditions: rhesus monkey, in vivo, read-out: Vdss
[6] = target: Receptor-type tyrosine-protein kinase FLT3 (Homo sapiens, UniProt P36888); experiment: Inhibition of human Flt3
Cytochrome P450 2D6 = Cytochrome P450 2D6 (Homo sapiens, UniProt P10635); experiment: Inhibition of CYP2D6; type: ADME
[7] = AUC (0 to infinity) in mouse at 2 mg/kg, po; type: ADME, organism-based; parameters: time infinity, dose 2 mg/kg, route oral; conditions: plasma
Mus musculus [8] = experiment: Inhibition of Akt phosphorylation at S473 in human GTL16 cells xenografted in CD1 nu/nu mouse at 10 to 100 mg/kg, po BID measured after 4 hrs by immunostaining assay; type: functional, organism-based
[9] = target: Vascular endothelial growth factor receptor 2 (Homo sapiens, UniProt P35968); experiment: Inhibition of human KDR
Mus musculus [10] = experiment: Inhibition of c-Met phosphorylation at Y1365 in human GTL16 cells xenografted in CD1 nu/nu mouse at 10 to 100 mg/kg, po BID measured after 4 hrs by immunostaining assay; type: functional, organism-based
GTL 16 [11] = experiment: Antitumor activity against human GTL16 cells xenografted in CD1 nu/nu mouse assessed as suppression of tumor growth at 200 mg/kg, po QD; type: functional, organism-based; parameters: dose 200 mg/kg
[12] = Plasma clearance in monkey at 0.25 mg/kg, iv; type: ADME, organism-based, Macaca mulatta; parameters: dose 0.25 mg/kg, route intravenous; conditions: rhesus monkey
[13] = target: High affinity nerve growth factor receptor (Homo sapiens, UniProt P04629); experiment: Inhibition of human TrkA
Mus musculus [14] = experiment: Inhibition of c-Met phosphorylation at Y1349 in human GTL16 cells xenografted in CD1 nu/nu mouse at 10 to 100 mg/kg, po BID measured after 4 hrs by immunostaining assay; type: functional, organism-based
[15] = target: Vascular endothelial growth factor receptor 1 (Homo sapiens, UniProt P17948); experiment: Inhibition of human Flt1
Canis familiaris [16] = experiment: AUC (0 to infinity) in dog at 2 mg/kg, po; type: ADME, organism-based, Canis lupus familiaris, Plasma; parameters: time infinity, dose 2 mg/kg, route oral; conditions: in vivo
[17] = Tmax in dog at 2 mg/kg, po; type: ADME, organism-based, Canis lupus familiaris; parameters: dose 2 mg/kg, route oral; conditions: in vivo
[18] = Half life in monkey at 0.25 mg/kg, iv; type: ADME, organism-based, Macaca mulatta; parameters: dose 0.25 mg/kg, route intravenous; conditions: rhesus monkey, in vivo
[19] = target: T1, Hepatocyte growth factor receptor; experiment: Inhibition of c-MET overexpressed in human GTL-16 cells assessed as phosphorylation at C-terminal Y1349 after 2 hrs by Western blot analysis; type: cell-based
[20] = Tmax in rat at 5 mg/kg, po; type: ADME, organism-based; parameters: dose 5 mg/kg, route oral; conditions: in vivo
[21] = target: Macrophage-stimulating protein receptor (Homo sapiens, UniProt Q04912); experiment: Inhibition of human Ron
[22] = Solubility of the compound at pH 7.4; type: physicochemical; conditions: buffer
[23] = Cmax in rat at 5 mg/kg, po; type: ADME, organism-based; parameters: dose 5 mg/kg, route oral; conditions: in vivo
Canis familiaris [24] = experiment: AUC (0 to infinity) in dog at 1 mg/kg, iv; type: ADME, organism-based, Canis lupus familiaris, Plasma; parameters: time infinity, dose 1 mg/kg, route intravenous; conditions: in vivo
[25] = target: BDNF/NT-3 growth factors receptor (Homo sapiens, UniProt Q16620); experiment: Inhibition of human TrkB
[26] = Oral bioavailability in mouse at 2 mg/kg; type: ADME, organism-based; conditions: in vivo
[27] = target: T1, Hepatocyte growth factor receptor; experiment: Inhibition of recombinant human c-MET phosphorylation at C-terminal Y1230
Canis familiaris [28] = experiment: Oral bioavailability in dog at 2 mg/kg; type: ADME, organism-based, Canis lupus familiaris; conditions: in vivo
[29] = AUC (0 to infinity) in monkey at 0.5 mg/kg, po; type: ADME, organism-based, Macaca mulatta; parameters: time infinity, dose 0.5 mg/kg, route oral; conditions: rhesus monkey, plasma
[30] = target: Vascular endothelial growth factor receptor 3 (Homo sapiens, UniProt P35916); experiment: Inhibition of human Flt4
[31] = Volume of distribution at steady state in dog at 1 mg/kg, iv; type: ADME, organism-based, Canis lupus familiaris; parameters: dose 1 mg/kg, route intravenous; conditions: in vivo, read-out: Vdss
[32] = target: T1, Hepatocyte growth factor receptor; experiment: Inhibition of recombinant human c-MET phosphorylation at C-terminal Y1235
[33] = target: T1, Hepatocyte growth factor receptor; experiment: Inhibition of recombinant human c-MET phosphorylation at C-terminal Y1234
[34] = target: Fibroblast growth factor receptor 2 (Homo sapiens, UniProt P21802); experiment: Inhibition of human FGFR2
Mus musculus [35] = experiment: Toxicity in human GTL16 cells xenografted CD1 nu/nu mouse assessed as change in median body weight at 200 mg/kg, po QD; type: organism-based; parameters: dose 200 mg/kg, route oral; conditions: in vivo
[36] = Half life in dog at 1 mg/kg, iv; type: ADME, organism-based, Canis lupus familiaris; parameters: dose 1 mg/kg, route intravenous; conditions: in vivo
[37] = Cmax in dog at 2 mg/kg, po; type: ADME, organism-based, Canis lupus familiaris; parameters: dose 2 mg/kg, route oral; conditions: in vivo
[38] = Half life in mouse at 1 mg/kg, iv; type: ADME, organism-based; parameters: dose 1 mg/kg, route intravenous; conditions: in vivo
Cytochrome P450 2C9 = Cytochrome P450 2C9 (Homo sapiens, UniProt P11712); experiment: Inhibition of CYP2C9; type: ADME
[39] = AUC (0 to infinity) in mouse at 1 mg/kg, iv; type: ADME, organism-based; parameters: time infinity, dose 1 mg/kg, route intravenous; conditions: plasma
[40] = Cmax in mouse at 2 mg/kg, po; type: ADME, organism-based; parameters: dose 2 mg/kg, route oral; conditions: in vivo
[41] = AUC (0 to infinity) in monkey at 0.25 mg/kg, iv; type: ADME, organism-based, Macaca mulatta; parameters: time infinity, dose 0.25 mg/kg, route intravenous; conditions: rhesus monkey, plasma
[42] = target: T1, Hepatocyte growth factor receptor; experiment: Binding affinity to human recombinant His6-tagged phosphorylated c-Met cytosolic domain
[43] = target: Hepatocyte growth factor receptor (Homo sapiens, UniProt P08581, M1250T)
[44] = Oral bioavailability in rat at 5 mg/kg; type: ADME, organism-based; conditions: in vivo
[45] = Plasma clearance in mouse at 1 mg/kg, iv; type: ADME, organism-based; parameters: dose 1 mg/kg, route intravenous
GTL 16 [46] = experiment: Antitumor activity against human GTL16 cells xenografted in CD1 nu/nu mouse assessed as suppression of tumor growth at 10 to 100 mg/kg, po BID; type: functional, organism-based
[47] = target: T1, Hepatocyte growth factor receptor; experiment: Inhibition of c-MET overexpressed in human GTL-16 cells assessed as phosphorylation at C-terminal Y1234 after 2 hrs by Western blot analysis; type: cell-based
[48] = Antiproliferative activity against human GTL16 cells after 72 hrs; conditions: GTL 16, 72 h
Mus musculus [49] = experiment: Toxicity in human GTL16 cells xenografted CD1 nu/nu mouse assessed as change in median body weight at 10 to 100 mg/kg, po BID; type: organism-based; parameters: dose 10-100 mg/kg, route oral; conditions: in vivo
Mus musculus [50] = experiment: Toxicity in human GTL16 cells xenografted CD1 nu/nu mouse assessed as mortality at 10 to 100 mg/kg, po BID; type: organism-based; parameters: dose 10-100 mg/kg, route oral; conditions: in vivo
Mus musculus [51] = experiment: Inhibition of c-Met phosphorylation at Y1349 in human GTL16 cells xenografted in po dosed CD1 nu/nu mouse measured 1 hr post dosing by Western blot analysis; conditions: CD1, GTL 16, 1 h
[52] = target: T1, Hepatocyte growth factor receptor; experiment: Inhibition of c-MET overexpressed in human GTL-16 cells assessed as phosphorylation at C-terminal Y1235 after 2 hrs by Western blot analysis; type: cell-based
[53] = target: Tyrosine-protein kinase ABL1 (Homo sapiens, UniProt P00519); experiment: Inhibition of human Abl
[54] = Tmax in mouse at 2 mg/kg, po; type: ADME, organism-based; parameters: dose 2 mg/kg, route oral; conditions: in vivo

Structure (SMILES): CN(C[C@@H]1COCCO1)S(=O)(=O)Nc1ccc2ccc3ncc(-c4cnn(C)c4)cc3c(=O)c2c1 [MK-2461]
- IC50 [1]: 26 nM
- logP [2]: 2.7
- AUC(0-inf) [3]: 7.6 µM·h
- IC50 [4]: 2 nM
- Vd [5]: 0.5 L/kg
- IC50 [6]: 22 nM
- IC50 (Cytochrome P450 2D6): > 100000 nM
- AUC(0-inf) [7]: 0.6 µM·h
- inhibition (Mus musculus [8]): Active
- IC50 [9]: 44 nM
- inhibition (Mus musculus [10]): Active
- Activity (GTL 16 [11]): Active
- clearance [12]: 8.4 mL/min/kg
- IC50 [13]: 46 nM
- inhibition (Mus musculus [14]): Active
- IC50 [15]: 10 nM
- AUC (Canis familiaris [16]): 13.7 µM·h
- Tmax [17]: 84 min
- half-life [18]: 48 min
- IC50 [19]: 56 nM
- Tmax [20]: 42 min
- IC50 [21]: 7 nM
- solubility [22]: 3 µg/mL (≈ 6.05 µM)
- Cmax [23]: 4200 nM
- AUC (Canis familiaris [24]): 8.4 µM·h
- IC50 [25]: 61 nM
- bioavailability [26]: 75%
- IC50 [27]: 900 nM
- F (Canis familiaris [28]): 13%
- AUC(0-inf) [29]: 0.4 µM·h
- IC50 [30]: 78 nM
- Vd [31]: 1.1 L/kg
- IC50 [32]: 900 nM
- IC50 [33]: 900 nM
- IC50 [34]: 39 nM
- Activity (Mus musculus [35]): Non-toxic
- half-life [36]: 174 min
- Cmax [37]: 2500 nM
- half-life [38]: 30 min
- IC50 (Cytochrome P450 2C9): 1200 nM
- AUC(0-inf) [39]: 0.4 µM·h
- Cmax [40]: 410 nM
- AUC(0-inf) [41]: 1 µM·h
- Kd [42]: 4 nM
- IC50 [43]: 0.4 nM
- bioavailability [44]: 62%
- clearance [45]: 83 mL/min/kg
- Activity (GTL 16 [46]): Active
- IC50 [47]: > 2500 nM
- IC50 [48]: 440 nM
- Activity (Mus musculus [49]): Non-toxic
- Activity (Mus musculus [50]): Non-toxic
- IC50 (Mus musculus [51]): 1000 nM
- IC50 [52]: > 2500 nM
- IC50 [53]: 7800 nM
- Tmax [54]: 18 min
